Laboratory results reported in US7727965B2, “C-glycosylisoflavones having alkylaminoalkoxyl substituent, preparation and use of the same” (Hainan Yangpu New & Special Medicine Co., Ltd., priority 2003, dated 2010).

Legend:
[1] = system: Kunming mice; test: Normal pressure hypoxia-resistance test in mice; assay type: in vivo; conditions: 60 mg/Kg intraperitoneal, 0.5 hours before sealing in 250 ml bottles, examples tested as hydrochloride salts
Description: This test was carried out by a common method familiar to those skilled in the art. 32 Kunming mice (16 males vs. 16 females, body weights ranging from 18 to 20 g) were randomly divided into a control group and a administration group (each group having 16 animals), wherein the dosage was 60 mg/Kg mouse and 0.2 ml for each animal. After 0.5 hours of the intraperitoneal injection of test solutions, the mice were placed and sealed in 250 ml wide-mouthed bottles with ground stoppers. The times of death were recorded. Statistical analysis was conducted separately with respect to the blank control group and puerarin group, and P values were calculated.

[2] = cited from earlier work
[3] = cited from earlier work; remark: listed apart in the source
[4] = 568 patients administered with puerarin; cited from earlier work

Row | Compound | Time to death [1] | also measured
1 | CCCN(CCC)CCCOc1ccc(-c2coc3c([C@@H]4O[C@H](CO)[C@@H](O)[C@H](O)[C@H]4O)c(O)ccc3c2=O)cc1 [Example 7, 4′-[3-N-di(n-propyl)aminopropoxy]-7-hydroxy-8-β-D-(1-deoxyglucosyl)-isoflavone] | 69.8 ± 5 min | –
2 | O=c1c(-c2ccc(O)cc2)coc2c([C@@H]3O[C@H](CO)[C@@H](O)[C@H](O)[C@H]3O)c(O)ccc12 [puerarin, 4′,7-dihydroxy-8-β-D-C-glycosylisoflavone] | 48.3 ± 5 min | solubility of puerarin in 4.3% PVP aqueous solution ([2]; 4.3% PVP aqueous solution): 1.332 g/100 ml; stability in an aqueous solution ([2]; relatively high pH value): poor stability; solubility of puerarin in water ([2]; water): 0.462 g/100 ml; oral bioavailability [3]: about 30%; total incidence rate of febrile [4]: 5.81%
3 | CCN(CC)CCCOc1ccc(-c2coc3c([C@@H]4O[C@H](CO)[C@@H](O)[C@H](O)[C@H]4O)c(O)ccc3c2=O)cc1 [Example 6, 4′-(3-N-diethylaminopropoxy)-7-hydroxy-8-β-D-(1-deoxyglucosyl)-isoflavone] | 73.5 ± 9 min | –
4 | CN1CCN(CCCCOc2ccc(-c3coc4c([C@@H]5O[C@H](CO)[C@@H](O)[C@H](O)[C@H]5O)c(O)ccc4c3=O)cc2)CC1 [Example 17, 4′-(4-N-methylpiperazinylbutoxy)-7-hydroxy-8-β-D-(1-deoxyglucosyl)-isoflavone] | 59.8 ± 7 min | –
5 | CCN1CCN(CCCCOc2ccc(-c3coc4c([C@@H]5O[C@H](CO)[C@@H](O)[C@H](O)[C@H]5O)c(O)ccc4c3=O)cc2)CC1 [Example 18, 4′-(4-N-ethylpiperazinylbutoxy)-7-hydroxy-8-β-D-(1-deoxyglucosyl)-isoflavone] | 75.9 ± 6 min | –
6 | O=c1c(-c2ccc(OCCCN3CCOCC3)cc2)coc2c([C@@H]3O[C@H](CO)[C@@H](O)[C@H](O)[C@H]3O)c(O)ccc12 [Example 4, 4′-(3-N-morpholinylpropoxy)-7-hydroxy-8-β-D-(1-deoxyglucosyl)isoflavone] | 75.3 ± 7 min | –
7 | CCN(CC)CCCCOc1ccc(-c2coc3c([C@@H]4O[C@H](CO)[C@@H](O)[C@H](O)[C@H]4O)c(O)ccc3c2=O)cc1 [Example 14, 4′-(4-N-diethylaminobutoxy)-7-hydroxy-8-β-D-(1-deoxyglucosyl)isoflavone] | 79.1 ± 8 min | –
